Reference: patent US20250025443A1, “COMPOUNDS AND METHODS FOR TREATING CORONA VIRUSES” (CLEAR CREEK BIO, INC., priority 2021, published 2025)

These compounds were tested against SARS-CoV-2 Papain-Like Protease (PLpro) (Severe acute respiratory syndrome coronavirus 2 (2019-nCoV) (SARS-CoV-2), UniProt P0DTD1) (assay: biochemical). Conditions: PLpro 6.25 nM, substrate 25 μM, 60 min at 25° C.; for more potent compounds PLpro 1 nM, 120 min; read-out: PLpro IC50.
In the case of `COc1ccc(Cl)c(C(=O)N[C@H](C)c2cccc3ccccc23)c1` [Compound 132, (R)-2-Chloro-5-methoxy-N-(1-(naphthalen-1-yl)ethyl)benzamide], the IC50 is reported as > 5000 nM.

Same assay, conditions: PLpro enzymatic fluorescence assay; class symbols; read-out: PLpro IC50
For `Cc1ccc(OC[C@@H]2CCN2C)cc1C(=O)NC1(c2cc(-c3ccc(C(=O)N4CCCC4)s3)cc3ncccc23)CC1` [Compound 767, (S)-2-Methyl-5-((1-methylazetidin-2-yl)methoxy)-N-(1-(7-(5-(pyrrolidine-1-carbonyl)thiophen-2-yl)quinolin-5-yl)cyclopropyl)benzamide], the IC50 was > 5000 nM.
For `Cc1ccc(OC[C@@H]2CCN2C)cc1C(=O)NC1(c2cc(NCc3ccccc3)cc3ncccc23)CC1` [Compound 747, (S)—N-(1-(7-(Benzylamino)quinolin-5-yl)cyclopropyl)-2-methyl-5-((1-methylazetidin-2-yl)methoxy)benzamide], the IC50 was < 100 nM.
`CC(=O)Nc1cc(C2(NC(=O)c3cc(OCC4CCN4C)ccc3C)CC2)c2ccccc2c1` (stereo not drawn) [Compound 500, N-(1-(3-Acetamidonaphthalen-1-yl)cyclopropyl)-2-methyl-5-((1-methylazetidin-2-yl)methoxy)benzamide] was tested, and the IC50 was < 100 nM.
`Cc1ccc(OCC2CCN2C)cc1C(=O)NC1(c2ccnc3ccccc23)CC1` (stereo not drawn) [Compound 473, 2-Methyl-5-((1-methylazetidin-2-yl)methoxy)-N-(1-(quinolin-4-yl)cyclopropyl)benzamide] was tested, and the IC50 was < 100 nM.
With `Cc1ccc(OC[C@@H]2CCN2C)cc1C(=O)NC1(c2cc(C#CC(F)(F)F)cc3ncccc23)CC1` [Compound 803, (S)-2-Methyl-5-((1-methylazetidin-2-yl)methoxy)-N-(1-(7-(3,3,3-trifluoroprop-1-yn-1-yl)quinolin-5-yl)cyclopropyl)benzamide] the IC50 was < 100 nM.
For `Cc1ccc(OCC2CCN2C)cc1C(=O)NC1(c2cc(OC(C)C)cc3ccccc23)CC1` (stereo not drawn) [Compound 476, N-(1-(3-Isopropoxynaphthalen-1-yl)cyclopropyl)-2-methyl-5-((1-methylazetidin-2-yl)methoxy)benzamide], the IC50 was < 100 nM.
In the case of `Cc1ccc(OC[C@@H]2CCN2)cc1C(=O)NC1(c2cc(-c3ccc(=O)[nH]c3)cc3ncccc23)CC1` [Compound 674, (S)-5-(Azetidin-2-ylmethoxy)-2-methyl-N-(1-(7-(6-oxo-1,6-dihydropyridin-3-yl)quinolin-5-yl)cyclopropyl)benzamide], the IC50 is reported as < 100 nM.
In the case of `Cc1ccc(OC[C@@H]2CCN2C)cc1C(=O)NC1(c2cc(OS(=O)(=O)C(F)(F)F)cc3ncccc23)CC1` [Compound 739, (S)-5-(1-(2-Methyl-5-((1-methylazetidin-2-yl)methoxy)benzamido)cyclopropyl)quinolin-7-yl trifluoromethanesulfonate], the IC50 is reported as < 100 nM.

Same assay, conditions: SARS-CoV-2 PLpro enzymatic fluorescence assay; read-out: PLpro IC50
With `Cc1cc2cc(CN)[nH]c2cc1C(=O)NC1(c2ccc3ccccc3c2)CC1` [Compound 248, 2-(Aminomethyl)-5-methyl-N-(1-(naphthalen-2-yl)cyclopropyl)-1H-indole-6-carboxamide] the IC50 was 1000 to 5000 nM.
`Cc1cc2cn[nH]c2cc1C(=O)NC1(c2cccc3ccccc23)CC1` [Compound 176, 5-Methyl-N-(1-(naphthalen-1-yl)cyclopropyl)-1H-indazole-6-carboxamide] gave an IC50 of 100 to 1000 nM.
Work on `Cc1ccc(CC(N)=O)cc1C(=O)NC1(c2cccc3ccccc23)CC1` [Compound 312, 5-(2-Amino-2-oxoethyl)-2-methyl-N-(1-(naphthalen-1-yl)cyclopropyl)benzamide] yielded an IC50 of 100 to 1000 nM.
For `Cc1ccc(OCCN(C)C)cc1C(=O)NC1(c2cccc(-c3ccccc3)c2C)CC1` [Compound 340, 5-(2-(Dimethylamino)ethoxy)-2-methyl-N-(1-(2-methyl-[1,1′-biphenyl]-3-yl)cyclopropyl)benzamide], the IC50 was 100 to 1000 nM.
For `CCCNc1cc(C2(NC(=O)c3cc(OC[C@@H]4CCN4C)ccc3C)CC2)c2cccnc2c1` [Compound 743, (S)-2-Methyl-5-((1-methylazetidin-2-yl)methoxy)-N-(1-(7-(propylamino)quinolin-5-yl)cyclopropyl)benzamide], the IC50 was < 100 nM.
`Cc1cc(I)c(N)cc1C(=O)NC1(c2cccc3ccccc23)CC1` [Compound 216, 5-Amino-4-iodo-2-methyl-N-(1-(naphthalen-1-yl)cyclopropyl)benzamide] was tested, and the IC50 was 100 to 1000 nM.
`Cc1ccc(OCCN(C)C)cc1C(=O)NC1(c2ccc(O)cc2)CC1` [Compound 294, 5-(2-(Dimethylamino)ethoxy)-N-(1-(4-hydroxyphenyl)cyclopropyl)-2-methylbenzamide] was tested, and the IC50 was > 5000 nM.
`Cc1ccc(OCCN(C)C)cc1C(=O)NC1(c2cccc3ccsc23)CC1` [Compound 368, N-(1-(Benzo[b]thiophen-7-yl)cyclopropyl)-5-(2-(dimethylamino)ethoxy)-2-methylbenzamide] gave an IC50 of 100 to 1000 nM.
In the case of `Cc1ccc(N2CCNCC2)cc1C(=O)NC1(c2cccc3ccccc23)CC1` [Compound 410, 2-Methyl-N-(1-(naphthalen-1-yl)cyclopropyl)-5-(piperazin-1-yl)benzamide], the IC50 is reported as < 100 nM.
`Cc1cc2nc(CN)[nH]c2cc1C(=O)NC1(c2cccc3ccccc23)CC1` [Compound 280, 2-(Aminomethyl)-5-methyl-N-(1-(naphthalen-1-yl)cyclopropyl)-1H-benzo[d]imidazole-6-carboxamide] gave an IC50 of 100 to 1000 nM.
For `CCS(=O)(=O)c1cc(C2(NC(=O)c3cc(OCCN(C)C)ccc3C)CC2)c2ccccc2c1` [Compound 471, 5-(2-(Dimethylamino)ethoxy)-N-(1-(3-(ethylsulfonyl)naphthalen-1-yl)cyclopropyl)-2-methylbenzamide], the IC50 was 100 to 1000 nM.
`COc1cc(C2(NC(=O)c3cc(OC[C@@H]4CCN4C)ccc3C)CC2)c2ccccc2n1` [Compound 555, (S)-N-(1-(2-Methoxyquinolin-4-yl)cyclopropyl)-2-methyl-5-((1-methylazetidin-2-yl)methoxy)benzamide] was tested, and the IC50 was < 100 nM.
With `COc1cc(C2(NC(=O)c3cc(OCCN(C)C)ccc3C)CC2)c2cccnc2c1` [Compound 434, 5-(2-(Dimethylamino)ethoxy)-N-(1-(7-methoxyquinolin-5-yl)cyclopropyl)-2-methylbenzamide] the IC50 was < 100 nM.
With `Cc1ccc(NC2CNC2)cc1C(=O)NC1(c2cccc3ccccc23)CC1` [Compound 177, 5-(Azetidin-3-ylamino)-2-methyl-N-(1-(naphthalen-1-yl)cyclopropyl)benzamide] the IC50 was 100 to 1000 nM.
With `Cc1cc2cc(CN3CCOCC3)[nH]c2cc1C(=O)NC1(c2cccc3ccccc23)CC1` [Compound 213, 5-Methyl-2-(morpholinomethyl)-N-(1-(naphthalen-1-yl)cyclopropyl)-1H-indole-6-carboxamide] the IC50 was 1000 to 5000 nM.
With `Cc1ccc(CCC(N)=O)cc1C(=O)NC1(c2cccc3ccccc23)CC1` [Compound 452, 5-(3-Amino-3-oxopropyl)-2-methyl-N-(1-(naphthalen-1-yl)cyclopropyl)benzamide] the IC50 was 100 to 1000 nM.
With `CNCc1cc2cc(C)c(C(=O)NC3(c4cccc5ccccc45)CC3)cc2o1` [Compound 220, 5-Methyl-2-((methylamino)methyl)-N-(1-(naphthalen-1-yl)cyclopropyl)benzofuran-6-carboxamide] the IC50 was < 100 nM.
With `Cc1ccc(OCCN(C)C)cc1C(=O)NC1(c2cccc(OCc3ccccc3)c2)CC1` [Compound 308, N-(1-(3-(Benzyloxy)phenyl)cyclopropyl)-5-(2-(dimethylamino)ethoxy)-2-methylbenzamide] the IC50 was > 5000 nM.
